Measured values reported in patent publication US20110038791A1, “METHODS FOR INHIBITING SIX1 AND EYA PROTEINS” (priority 2008, published 2011).
Where two headings read alike, the source gives them in different places.

Target: T1, human Eya2 Eya Domain (ED) (Homo sapiens, UniProt O00167)
T1 construct: a highly conserved C-terminal Eya domain (ED); made in house; host or cells: E. coli
T1 sequence (O00167 253-538 limits assumed): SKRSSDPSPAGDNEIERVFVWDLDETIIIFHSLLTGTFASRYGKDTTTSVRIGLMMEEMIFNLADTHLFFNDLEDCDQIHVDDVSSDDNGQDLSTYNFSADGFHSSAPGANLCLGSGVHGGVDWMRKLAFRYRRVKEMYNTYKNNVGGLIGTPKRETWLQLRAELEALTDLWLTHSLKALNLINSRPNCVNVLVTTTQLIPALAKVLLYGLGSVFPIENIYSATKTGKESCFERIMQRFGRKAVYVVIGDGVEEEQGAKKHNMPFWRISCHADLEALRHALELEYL
Experiment: Inhibition of the phosphatase activity of Eya2 Eya Domain (ED) by known phosphatase inhibitors
Type: biochemical
Conditions: for IC50: human Eya2 ED, FIG. 20

[1] = at the concentrations that typically completely inhibit their cognate phosphatases

## c1cnc2c(c1)ccc1cccnc12 [(1, 10)-phenanthroline]
[1]
  effect on ED phosphatase activity: no effect

## N[C@@H](Cc1ccccc1)C(=O)O [L-phenylalanine]
[1]
  effect on ED phosphatase activity: no effect

## [Na+].[Na+].[O]=[Mo](=[O])([O-])[O-] [Na2MoO4]
  IC50: 11.3 ± 1.6 mM

## [Na+].[Na+].[Na+].[O]=[V]([O-])([O-])[O-] [Na3VO4]
  IC50: 1.8 ± 0.2 mM

## C=C1[C@@H](O)[C@@H]2O[C@]3(CC[C@H](/C=C/[C@@H](C)[C@@H]4CC(C)=C[C@@]5(O[C@H](C[C@@](C)(O)C(=O)O)CC[C@H]5O)O4)O3)CC[C@H]2O[C@@H]1[C@@H](O)C[C@H](C)[C@H]1O[C@@]2(CCCCO2)CC[C@H]1C [Okadaic acid]
  effect on ED phosphatase activity: no effect

## O=P(O)(O)OC(CO)CO [β-glycerophosphate]
  IC50: 8.2 ± 2.1 mM

## cyclosporine A
  effect on ED phosphatase activity: no effect
